Laboratory results published in US7553105B1, “Method and compositions for treatment of subsurface contaminants” (Colorado School of Mines, priority 2005, dated 2009).
In brackets after ≈: the same amount, converted by molar mass. Several values for one entry are separate records, joined by “and”; a condition that tells them apart may be missing. Equal entries are not always repeated. Where two headings read alike, the source gives them in different places. Marks after values point to notes of the source that are not given here. Each block holds one compound with its values, some of them ahead of it.

Experiments:
[1] = Batch screening for compatibility of surfactants/cosolvents with KMnO4; conditions: for effect of surfactant concentration on compatibility with permanganate: FIG. 1
[2] = maximum contaminant level, USEPA; cited from earlier work
[3] = 25° C.; cited from earlier work
[4] = Solubility in water 20° C.; format: physicochemical; conditions: measured for this study
[5] = Solubility of PCE in surfactants, co-surfactants and electrolytes versus water alone; format: physicochemical
Experimental: Co-surfactants and electrolytes serve to further enhance the solubilization capacity of any given surfactant.
Therefore use of equilibrium values in the prediction of surfactant enhanced remediation performance may result in the underestimation of remediation times and costs.
PCE concentrations were determined using a Hewlett-Packard gas chromatograph (GC) equipped with auto-ampler and electron capture detector (ECD).

[6] = Example 3 batch compatibility of cosolvents and surfactants with permanganate; conditions: 5,000 mg/L KMnO4; 24-48 hr observation
[7] = Batch surfactant sorption experiments; format: physicochemical; conditions: medium-grained laboratory sand
Text: Adsorption isotherms of ionic surfactants onto charged sites are typically approximated using a Langmuir model (Rosen, 1989).

[8] = vendor data, cited from earlier work
[9] = literature; cited from earlier work
[10] = Density of 3.5 wt % Dowfax 8390 solution; conditions: 3.5 wt % solution, 23° C., average of five measurements
[11] = Interfacial tension, DuNuoy ring tensiometer; conditions: 3.5 wt % Dowfax 8390 solution equilibrated with PCE, average of five measurements
[12] = 3-hour observation, 3.5 wt % surfactant + 5000 mg/L KMnO4
[13] = 24-hour observation, 3.5 wt % surfactant + 5000 mg/L KMnO4
[14] = MnO4^− loss, 3-hour observation, 3.5 wt % surfactant + 5000 mg/L KMnO4
[15] = MnO4^− loss, 24-hour observation, 3.5 wt % surfactant + 5000 mg/L KMnO4

Compound: CC(C)=O [Acetone]
% mass loss [1]: 98%

Compound: c1ccccc1 [Benzene]
MCL [2]: 0.005 mg/L

Compound: Clc1ccccc1 [Chlorobenzene]
Solubility in water [3]: 472 µg/mL (≈ 4190 µM)

Compound: Clc1cc2c(cc1Cl)Oc1cc(Cl)c(Cl)cc1O2 [Dioxin (2,3,7,8-TCDD), 2,3,7,8-TCDD]
MCL [2]: 3e-08 mg/L
Solubility in water [3]: 1.9e-09 µg/mL (≈ 5.9e-09 µM)

Compound: CCc1ccccc1 [Ethylbenzene]
MCL [2]: 0.7 mg/L
Solubility in water [3]: 152 µg/mL (≈ 1430 µM)

Compound: Cl[C@H]1[C@H](Cl)[C@@H](Cl)[C@@H](Cl)[C@H](Cl)[C@H]1Cl [Lindane (herbicide), Lindane]
Solubility in water [3]: 7.3 µg/mL (≈ 25.1 µM)

Compound: c1ccc2ccccc2c1 [Napthalene (PAH), Napthalene]
MCL [2]: 0.0002 mg/L
Solubility in water [3]: 33 µg/mL (≈ 257 µM)

Compound: ClC(Cl)=C(Cl)Cl [PCE, tetrachloroethene]
MCL [2]: 0.005 mg/L
solubility [4]: 250 µg/mL (≈ 1510 µM)
5% Dowfax + 3% AOT: PCE ([5]; in 5% Dowfax + 3% AOT): 31,954 mg/L
5% Dowfax + 3% AOT + 3% NaBr: PCE ([5]; in 5% Dowfax + 3% AOT + 3% NaBr): 107,284 mg/L
5% SDS + 3% AOT: PCE ([5]; in 5% SDS + 3% AOT): 21,410 mg/L
5% SDS + 3% AOT + 3% NaBr: PCE ([5]; in 5% SDS + 3% AOT + 3% NaBr): 62,700 mg/L
PCE in water only ([5]; water only): 200 mg/L

Compound: c1ccc2c(c1)ccc1ccccc12 [Phenanthrene (PAH), Phenanthrene]
MCL [2]: 0.0002 mg/L
Solubility in water [3]: 6.2 µg/mL (≈ 34.8 µM)

Average MnO4^− [1, 12]: 3442 mg/L
Average MnO4^− [1, 13]: 1896 mg/L
% mass loss [1, 14]: 29%
% mass loss [1, 15]: 61%
Compound: CCCCCCCCCCCCc1ccc(S(=O)(=O)O)cc1 [SDBS]

compatibility with permanganate [1]: compatible with permanganate
Average MnO4^− [1, 12]: 4523 mg/L
Average MnO4^− [1, 13]: 4393 mg/L
% mass loss [1, 14]: 6%
% mass loss [1, 15]: 20%
Compound: CCCCCCCCCCCCOS(=O)(=O)[O-].[Na+] [SDS, sodium dodecyl sulfate]

Compound: ClC=C(Cl)Cl [Trichloroethene, trichloroethene]
MCL [2]: 0.005 mg/L

% mass loss [1, 14]: 100%
% mass loss [1, 15]: 100%
Compound: CCCCCCCC/C=C\CCCCCCCC(=O)OCCOCC(OCCO)C1OCC(OCCO)C1OCCO (centres unmarked) [Tween 80, polyoxyethylene (20) sorbitan monooleate]
effect of surfactant concentration on compatibility with permanganate [1]: only compatible at low residual levels with permanganate

Compound: CCCCCCCCCC [n-Decane]
Solubility in water [3]: 0.053 µg/mL (≈ 0.372 µM)

Compound: CCCCCCCC [n-Octane]
Solubility in water [3]: 0.72 µg/mL (≈ 6.3 µM)

Compound: Cc1ccccc1C [o-Xylene]
Solubility in water [3]: 175 µg/mL (≈ 1650 µM)

Compound: Cc1ccc(C)cc1 [p-Xylene]
MCL [2]: 10 mg/L
Solubility in water [3]: 210 µg/mL (≈ 1980 µM)

Compound: CC(C)(C)O [tert-butanol]
Relative Amount of MnO2 Solids Generated [6]: None
Solution Color [6]: Dark
% mass loss [1]: 2% and 4%
Average MnO4^− [1]: 5075 mg/L and 4986 mg/L

Average MnO4^− [1, 12]: 4340 mg/L
Average MnO4^− [1, 13]: 4183 mg/L
% mass loss [1, 14]: 14%
% mass loss [1, 15]: 15%
Compound: (C16 linear) Sodium diphenyl oxide sulfonate [Calfax 16L-35]

Compound: Sodium hexadecyl diphenyl oxide disulfonate [Dowfax 8390]
sorption to laboratory sand [7]: negligible
CMC ([8]; critical micelle concentration): 140 mg/L
HLB [8]: 78.6
sorption to aquifer materials [9]: low sorption to aquifer materials
Relative Amount of MnO2 Solids Generated [6]: Few
Solution Color [6]: Dark
Density [10]: 1.007^c g/cm^3
compatibility with permanganate [1]: compatible with permanganate
Average MnO4^− [1, 12]: 4458 mg/L
Average MnO4^− [1, 13]: 3980 mg/L
effect of surfactant concentration on compatibility with permanganate [1]: not dependent on surfactant concentration
% mass loss [1, 14]: 10%
% mass loss [1, 15]: 23%
Interfacial Tension [11]: 8.5^c dyne/cm
